According to the supplement of paper PMC10307832:

Columns and labels:
Assay in all cases: relative viability (nuclei count vs DMSO), 5 days (fraction); higher = more cells survive
[1] = compound: NC(=O)[C@@H](CCC(F)(F)F)N(Cc1ccc(-c2ncon2)cc1F)S(=O)(=O)c1ccc(Cl)cc1 [Avagacestat] + CCNC(=O)c1noc(-c2cc(C(C)C)c(O)cc2O)c1-c1ccc(CN2CCOCC2)cc1 [Luminespib] (partner 0.01 µM)
Summary of the method: (§1)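 Relative viability was taken as the ratio of nuclei in treated wells to nuclei in vehicle wells. Lung cancer cell lines in 1536-well plates received compounds by pin tool one day after seeding, either one drug alone or a fixed anchor-drug dose plus five library-drug doses (not always all listed) in √10 steps. Nuclei were counted on 4× images after 5 days of treatment, and values are medians of duplicate plates.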

[2] = compound: NC(=O)[C@@H](CCC(F)(F)F)N(Cc1ccc(-c2ncon2)cc1F)S(=O)(=O)c1ccc(Cl)cc1 [Avagacestat] + CC(C)C[C@H](NC(=O)[C@H](Cc1ccccc1)NC(=O)c1cnccn1)B(O)O [Bortezomib] (partner 0.002 µM)
Summary of the method: as §1

[3] = compound: NC(=O)[C@@H](CCC(F)(F)F)N(Cc1ccc(-c2ncon2)cc1F)S(=O)(=O)c1ccc(Cl)cc1 [Avagacestat] + Cc1nc(Nc2ncc(C(=O)Nc3c(C)cccc3Cl)s2)cc(N2CCN(CCO)CC2)n1 [Dasatinib] (partner 0.075 µM)
Summary of the method: as §1

[4] = compound: NC(=O)[C@@H](CCC(F)(F)F)N(Cc1ccc(-c2ncon2)cc1F)S(=O)(=O)c1ccc(Cl)cc1 [Avagacestat] + CC(=O)c1c(C)c2cnc(Nc3ccc(N4CCNCC4)cn3)nc2n(C2CCCC2)c1=O [Palbociclib] (partner 0.5 µM)
Summary of the method: as §1

| Cell Line | relative viability ([1]; first compound 0.08 µM) | relative viability ([1]; first compound 0.253 µM) | relative viability ([1]; first compound 0.8 µM) | relative viability ([1]; first compound 2.53 µM) | relative viability ([1]; first compound 8 µM) | relative viability ([2]; first compound 0.08 µM) | relative viability ([2]; first compound 0.253 µM) | relative viability ([2]; first compound 0.8 µM) | relative viability ([2]; first compound 2.53 µM) | relative viability ([2]; first compound 8 µM) | relative viability ([3]; first compound 0.08 µM) | relative viability ([3]; first compound 0.253 µM) | relative viability ([3]; first compound 0.8 µM) | relative viability ([3]; first compound 2.53 µM) | relative viability ([3]; first compound 8 µM) | relative viability ([4]; first compound 0.08 µM) | relative viability ([4]; first compound 0.253 µM) | relative viability ([4]; first compound 0.8 µM) | relative viability ([4]; first compound 2.53 µM) | relative viability ([4]; first compound 8 µM) |
| --- | --- | --- | --- | --- | --- | --- | --- | --- | --- | --- | --- | --- | --- | --- | --- | --- | --- | --- | --- | --- |
| NCI-H727 | 0.36 | 0.343 | 0.289 | 0.355 | 0.39 | 0.956 | 0.927 | 1.04 | 0.981 | 0.828 | 0.35 | 0.355 | 0.5 | 0.369 | 0.41 | 0.578 | 0.577 | 0.606 | 0.684 | 0.672 |
| NCI-H1915 | 1.07 | 1.18 | 1.01 | 0.745 | 0.669 | 1.02 | 1.11 | 1.13 | 1 | 0.951 | 0.305 | 0.308 | 0.279 | 0.313 | 0.341 | 0.513 | 0.522 | 0.477 | 0.502 | 0.519 |
| NCI-H1437 | 1.4 | 1.28 | 1.12 | 1.17 | 1.05 | 0.602 | 0.69 | 0.519 | 0.379 | 0.282 | 0.283 | 0.278 | 0.346 | 0.291 | 0.211 | 0.329 | 0.341 | 0.361 | 0.306 | 0.294 |
| NCI-H2405 | 0.638 | 0.856 | 0.58 | 0.665 | 0.466 | 1.06 | 1.03 | 0.999 | 0.919 | 0.94 | 0.186 | 0.204 | 0.217 | 0.229 | 0.226 | 0.512 | 0.532 | 0.478 | 0.448 | 0.489 |
| LOU-NH91 | 0.311 | 0.341 | 0.31 | 0.331 | 0.342 | 0.541 | 0.509 | 0.51 | 0.478 | 0.485 | 0.612 | 0.509 | 0.618 | 0.443 | 0.493 | 0.533 | 0.482 | 0.574 | 0.52 | 0.525 |
| EMC-BAC-2 | 1.33 | 1.4 | 1.29 | 1.12 | 1.1 | 1.22 | 1.17 | 1.23 | 1.08 | 1.11 | 0.342 | 0.298 | 0.301 | 0.292 | 0.308 | 0.539 | 0.577 | 0.556 | 0.52 | 0.543 |
| NCI-H1993 | 0.93 | 0.91 | 1.04 | 0.752 | 0.842 | 1.37 | 1.35 | 1.47 | 1.27 | 1.3 | 0.53 | 0.549 | 0.586 | 0.491 | 0.538 | 0.758 | 0.714 | 0.705 | 0.572 | 0.638 |
| BEN | 0.396 | 0.308 | 0.675 | 0.326 | 0.238 | 0.936 | 0.789 | 0.954 | 0.533 | 0.775 | 0.382 | 0.325 | 0.389 | 0.37 | 0.326 | 0.466 | 0.456 | 0.502 | 0.513 | 0.482 |
| NCI-H1734 | 0.219 | 0.179 | 0.212 | 0.202 | 0.175 | 1.26 | 1.01 | 1.01 | 1.01 | 0.945 | 0.545 | 0.542 | 0.48 | 0.471 | 0.432 | 0.384 | 0.335 | 0.399 | 0.301 | 0.328 |
| NCI-H2347 | 0.633 | 0.379 | 0.608 | 0.512 | 0.311 | 1.1 | 0.914 | 0.935 | 0.862 | 0.79 | 0.292 | 0.292 | 0.369 | 0.297 | 0.331 | 0.398 | 0.481 | 0.409 | 0.445 | 0.462 |
| NCI-H647 | 0.184 | 0.148 | 0.146 | 0.15 | 0.12 | 1.66 | 1.15 | 1.14 | 1.06 | 0.922 | 0.195 | 0.188 | 0.232 | 0.118 | 0.147 | 0.456 | 0.497 | 0.486 | 0.341 | 0.35 |
| CAL-12T | 0.351 | 0.921 | 0.427 | 0.364 | 0.276 | 1.13 | 0.982 | 1.42 | 1.09 | 1.14 | 0.376 | 0.414 | 0.418 | 0.386 | 0.253 | 0.535 | 0.384 | 0.474 | 0.478 | 0.5 |
| EPLC-272H | 0.21 | 0.267 | 0.139 | 0.153 | 0.304 | 1.02 | 1.02 | 1.05 | 1.21 | 0.922 | 0.328 | 0.339 | 0.289 | 0.348 | 0.266 | 0.368 | 0.344 | 0.327 | 0.32 | 0.291 |
| LCLC-97TM1 | 0.849 | 1.03 | 0.837 | 0.705 | 0.718 | 0.98 | 0.625 | 1.38 | 0.786 | 0.482 | 0.945 | 0.86 | 0.757 | 0.866 | 0.706 | 0.294 | 0.264 | 0.312 | 0.185 | 0.206 |
| NCI-H3122 | 0.0934 | 0.101 | 0.074 | 0.0983 | 0.11 | 1.06 | 1.03 | 1.05 | 1.01 | 0.969 | 0.944 | 0.759 | 0.843 | 0.815 | 0.774 | 0.198 | 0.191 | 0.248 | 0.221 | 0.182 |
| HCC-15 | 0.442 | 0.338 | 0.309 | 0.325 | 0.284 | 1.22 | 1.21 | 1.24 | 0.973 | 0.921 | 0.685 | 0.642 | 0.652 | 0.608 | 0.539 | 0.906 | 1.01 | 0.78 | 0.68 | 0.694 |
